Source: US20260132165A1, “MODIFIED NUCLEOSIDE ANALOGUE AND USE THEREOF, AND NUCLEOSIDE ANALOGUE-CONTAINING DOUBLE-STRANDED OLIGONUCLEOTIDE AND USE THEREOF” (RIGERNA THERAPEUTICS (BEIJING) CO., LTD., priority 2023, published 2026)

What was measured:
[1] = system: target gene SOD1; assay: Test Example 4: lipid conjugated siRNA sequences with different carbon chain lengths, SOD1 in mouse brain, lateral ventricle administration; format: in vivo, C57BL/6j mice; design: Right hemisphere Mean value of inhibition rate / Left hemisphere Mean value of inhibition rate: unit not given here; conditions: lateral ventricle, 150 μg per mouse, D5; for Left hemisphere Mean value of inhibition rate: left hemisphere (non-administration side); for Right hemisphere Mean value of inhibition rate: right hemisphere (administration side)
[2] = system: target gene SOD1; assay: Test Example 7: inhibitory activity of lipid conjugated siRNA sequences on SOD1 in mouse adipose and muscle tissues (tail vein injection); format: in vivo, C57BL/6j mice; conditions: for D 14 % Mean value of inhibition rate / D 28 % Mean value of inhibition rate / D 49 % Mean value of inhibition rate / Kidney D 14 % Mean value of inhibition rate / Kidney D 28 % Mean value of inhibition rate / Kidney D 49 % Mean value of inhibition rate / Liver D 14 % Mean value of inhibition rate / Liver D 28 % Mean value of inhibition rate / Liver D 49 % Mean value of inhibition rate: tail vein injection 5 mg/kg; for D 28 % Mean value of inhibition rate / Kidney D 28 % Mean value of inhibition rate / Liver D 28 % Mean value of inhibition rate: D28; for D 49 % Mean value of inhibition rate / Kidney D 49 % Mean value of inhibition rate / Liver D 49 % Mean value of inhibition rate: D49; for Kidney D 14 % Mean value of inhibition rate / Kidney D 28 % Mean value of inhibition rate / Kidney D 49 % Mean value of inhibition rate: mouse kidney; for Liver D 14 % Mean value of inhibition rate / Liver D 28 % Mean value of inhibition rate / Liver D 49 % Mean value of inhibition rate: mouse liver
Description: RNA extraction: the above tissue samples were taken out from the RNAlater, and smashed for 60 s in Tissuelyser type II full-automatic tissue homogenizer, and total RNAs of various tissue samples were extracted using the full-automatic nucleic acid extraction instrument and the nucleic acid extraction kit from Zhejiang Hanwei Science and Technology Co. Ltd. according to methods described in instructions.
Reverse transcription reaction: 1 μg of the extracted total RNAs of the tissue samples were taken, and configured into 20 μL of reverse transcription system according to a method described in kit instructions by using a reverse transcription kit (Reverse Transcription System, A3500) from Promega Corporation and selecting Oligo (dT)15 reverse transcription primers, and the reverse transcription reaction was completed. After the reaction was ended, 80 μL of RNase-Free water was added into the reverse transcription system to provide cDNA solution for Real-time PCR detection.
Real-time PCR detection: 20 μL of Real-time PCR reaction system per PCR detection well was configured according to a method described in kit instructions using SYBR™ Select Master Mix (Catalog number: 4472908) reagent from ABI company. Each detection system contained 5 μL of cDNA template obtained from the above reverse transcription reaction, 10 μL of SYBR™ Select Master Mix, 0.5 μL of 10 μM upstream primers, 0.5 μL of 10 μM downstream primers, and 4 μL of RNase-Free H2O. The configured reaction system was subjected to Real-time PCR amplification on ABI StepOnePlus PCR instrument by a three-step method, wherein an amplification procedure was pre-denaturation at 95° C. for 10 min, then denaturation at 95° C. for 30 s, annealing at 60° C. for 30 s, and extension at 72° C. for 30 s; and processes of denaturation, annealing, and extension were repeated for 40 cycles. Gene expression differences were calculated by the ΔΔCt method after completion of the procedure.
In the real-time fluorescence quantitative PCR method, relative quantitative calculation of remaining expression level and inhibition rate of gene mRNA of interest in various test groups was performed by the ΔΔCt method, and the calculation method is as follows:
The present test example evaluated, by an evaluation method for inhibitory activity on a target gene in mice, the inhibitory activity of siRNA sequence RZ899090 with the sense strand with the NM073 conjugation at Position 4, siRNA sequence RZ899091 with the sense strand with the NM074 conjugation at Position 4, siRNA sequence RZ899078 with the sense strand with the NM202 conjugation at Position 6 and siRNA reference sequence RZ899093 with the sense strand with the Uhd conjugation at Position 4, and siRNA reference sequence RZ899076 with the sense strand with the NM200 conjugation at Position 4 on the target gene SOD1 of interest in mice. The above conjugation vectors were different in that NM073 was C18 aliphatic chain, NM074 was C20 aliphatic chain, and NM0202 and NM0200 were C22 aliphatic chains.
6-8 Week-old C57BL/6j mice were randomly grouped by body weight, 15 per group, 6 groups in total. Mice in each group were dosed with the above siRNA conjugates by tail vein injection, with an administration dose of 5 mg/kg per mouse, and an administration volume of 150 μL. PBS control group was administered with the same volume of siRNA conjugate-free PBS solution. The day of administration was recorded as D0, and 5 mice in each group were sacrificed on D14, D28 and D49 after administration. Tissues such as paragonadal fat, left hind leg quadriceps muscle, heart, liver, and kidney were respectively taken and stored in the RNAlater. RNA extraction, reverse transcription, and real-time fluorescence quantitative detection were performed on various tissues according to the above method, and gene expression differences were calculated by the above ΔΔCt method.

[3] = mouse adipose tissues (paragonadal fat), D14
[4] = mouse adipose tissues (paragonadal fat)
[5] = mouse skeletal muscle tissues (left hind leg quadriceps muscle), D14
[6] = mouse skeletal muscle tissues (left hind leg quadriceps muscle)

Substance	Left hemisphere Mean value of inhibition rate [1]	Right hemisphere Mean value of inhibition rate [1]	D 14 % Mean value of inhibition rate [2, 3]	D 28 % Mean value of inhibition rate [2, 4]	D 49 % Mean value of inhibition rate [2, 4]	D 14 % Mean value of inhibition rate ([2]; mouse heart tissues, D14)	D 28 % Mean value of inhibition rate ([2]; mouse heart tissues)	D 49 % Mean value of inhibition rate ([2]; mouse heart tissues)	Kidney D 14 % Mean value of inhibition rate ([2]; D14)	Kidney D 28 % Mean value of inhibition rate [2]	Kidney D 49 % Mean value of inhibition rate [2]	Liver D 14 % Mean value of inhibition rate ([2]; D14)	Liver D 28 % Mean value of inhibition rate [2]	Liver D 49 % Mean value of inhibition rate [2]	D 14 % Mean value of inhibition rate [2, 5]	D 28 % Mean value of inhibition rate [2, 6]	also measured
RZ899078: siRNA sequence with the sense strand with the NM202 (C22) conjugation at Position 6; SEQ ID NO: 20 / 24 (sense UUUUANUCCUCACUCUAAA; antisense UUUAGAGUGAGGAUUAAAAUG; NM202 (C22) conjugate at sense position 6; modified_base 1..2 OTHER; 2'-methoxy and 5'-thiophosphate modified nucleotides; modified_base 3..5 OTHER; 2'-methoxy modified nucleotides; modified_base 6 OTHER; n is the synthetic nucleotide analog NM202 as described in the disclosure.; modified_base 7..10 OTHER; 2'-fluoro modified nucleotides; modified_base 11..19 OTHER; modified_base 1 OTHER; 2'-methoxy and 5'-thiovinylphosphonate modified nucleotide; modified_base 2 OTHER; 2'-fluoro and 5'-thiophosphate modified nucleotide; modified_base 6 OTHER;)	30.24	52.15	91.53%	75.82%	65.16%	83.53%	79.52%	63.42%	−7.92%	1.46%	2.03%	20.63%	15.46%	−11.54%	71.63%	69.78%	inhibitory action on liver and kidney tissues ([2]; liver and kidney (non-target tissues), tail vein 5 mg/kg, D28 and D49): no inhibitory action; inhibitory activity compared with the NM200 conjugated reference sequence RZ899076 ([2]; mouse adipose tissues, tail vein 5 mg/kg, D14): on par; inhibitory activity compared with Uhd conjugated reference sequence RZ899093 and NM200 conjugated reference sequence RZ899076 ([2]; mouse heart tissues, tail vein 5 mg/kg, D14, D28 and D49): superior inhibitory activity; inhibitory activity in mouse skeletal muscle tissues ([2]; skeletal muscle, tail vein 5 mg/kg): highest inhibitory activity in muscles
RZ899076: siRNA reference sequence with the sense strand with the NM200 (C22) conjugation at Position 4; SEQ ID NO: 18 / 24 (sense UUUNAAUCCUCACUCUAAA; antisense UUUAGAGUGAGGAUUAAAAUG; NM200 (C22) conjugate at sense position 4; modified_base 1..2 OTHER; 2'-methoxy and 5'-thiophosphate modified nucleotides; modified_base 3 OTHER; 2'-methoxy modified nucleotide; modified_base 4 OTHER; n is the synthetic nucleotide analog NM200 as described in the disclosure.; modified_base 5..6 OTHER; 2'-methoxy modified nucleotides; modified_base 7..10 OTHER; 2'-fluoro modified nucleotides; modified_base 11..19 OTHER; 2'-methoxy modified ; modified_base 1 OTHER; 2'-methoxy and 5'-thiovinylphosphonate modified nucleotide; modified_base 2 OTHER; 2'-fluoro and 5'-thiophosphate modified …) [reference compound]	65.25	79.02	92.23%	86.10%	73.36%	70.04%	70.45%	37.03%	9.13%	9.82%	7.06%	51.15%	15.46%	−13.46%	82.53%	81.97%	D 49 % Mean value of inhibition rate [2, 6]: 66.88%
